Data on 2 compounds can be found in US10471059B2, “Compositions and methods of using tyrosine kinase inhibitors” (YALE UNIVERSITY, priority 2015, dated 2019).

Assay [1] deals with PZR Y241 and Y263 phosphorylation. As to the kind of experiment: Shp2E76A-induced PZR tyrosyl phosphorylation in NIH 3T3 cells, immunoblot. The class given is cell-based. The note with it: cells expressing activated Shp2 (Shp2-E76A). (In general: A western blot detects proteins with antibodies after separation by electrophoresis.)
Assay [2] shares this test system. As to the kind of experiment: Shp2 mutant-induced PZR tyrosyl phosphorylation in HEK-293 cells, immunoblot. The class given is cell-based. The note with it: HEK-293 cells transfected with Shp2 mutants; 5 μM SU6656.

Each structure is given as a SMILES string.

For `CC(C)(C)n1nc(-c2ccc(Cl)cc2)c2c(N)ncnc21` [PP2], in assay [1], the “concentration at which Shp2-E76A-induced PZR hyper tyrosyl phosphorylation was inhibited” value is 5 µM.

Turning to `CN(C)S(=O)(=O)c1ccc2c(c1)/C(=C/c1cc3c([nH]1)CCCC3)C(=O)N2` [SU6656], in assay [1], the “concentration at which Shp2-E76A-induced PZR hyper tyrosyl phosphorylation was inhibited” value is 1 µM. Besides, in assay [2], the “NS and NSML Shp2 mutant-induced PZR hypertyrosyl phosphorylation” value is given as “can be inhibited”.
